In test [1] the test system is MRSA 15187. As to the kind of experiment: MIC, agar incorporation method. Type of test: cell-based, Staphylococcus aureus. Conditions: MRSA 15187; agar incorporation. The text has this: (§1) The compounds of the invention display antibacterial activity when tested by the agar incorporation method. The following minimum inhibitory concentrations (μg/ml) were obtained for representative compounds of the invention which are given below in the following tables.
(§2) • 1) S.aureus ATCC 25923—Staphylococus aureus ATCC 25923 • 2) MRSA 15187—Methicillin Resistant Staphylococcus aureus • 3) Ent. faecalis ATCC 29212—Enterococcus faecalis ATCC 29212 • 4) Ent. faecium 6A—Enterococcus faecium 6A Van®, Cipro® • 5) Strep. pne. ATCC 6303—Streptococcus pneumoniae ATCC 6303 • 6) Strep. pyog. ATCC 19615—Streptococcus pyogenes • 7) S. epidermidis—Staphylococcus epidermidis ATCC 12228
(§3) Briefly, the compounds were dissolved in DMSO and doubling dilution of the compounds were incorporated into Meuller Hilton agar before solidification. Inoculum was prepared by suspending 4 to 5 colonies into 5 ml of normal saline solution and adjusting the turbidity to 0.5 Macfarland turbidity standard tables (1.5×10^8 CFU/ml), after appropriate dilutions, 10^4 CFU/spot was transfered into the surface of dried plate and incubated for 18 hours (24 hours for MRSN studies). The concentration showing no growth of the inoculated culture was recorded as the MIC. Appropriate ATCC standard strains were simultaneously tested and result recorded only when the MIC's against standard antibiotics were within the acceptable range.

For test [2], the system named is S. aureus 25923. As to the kind of experiment: MIC, agar incorporation method. Type of test: cell-based, Staphylococcus aureus. Conditions: S. aureus 25923; agar incorporation.
From the text: as §1, §2, §3

The subject of test [3] is MRSA 33. As to the kind of experiment: MIC, agar incorporation method. Type of test: cell-based, Staphylococcus aureus. Particulars: MRSA 33; agar incorporation. How it is done:
as §1, §3

Test [4] relates to MRSA 562. As to the kind of experiment: MIC, agar incorporation method. It is filed as cell-based, Staphylococcus aureus. Particulars: MRSA 562; agar incorporation; Table 1. As to the method:
as §1, §3

The subject of test [5] is E. faecalis 29212. As to the kind of experiment: MIC, agar incorporation method. Type of test: cell-based, Enterococcus faecalis. Particulars: E. faecalis 29212; agar incorporation.
From the text: as §1, §2, §3

For test [6], the system named is VRE 6A. As to the kind of experiment: MIC, agar incorporation method. Type of test: cell-based, Enterococcus faecium. Conditions: VRE 6A; agar incorporation.
From the text: as §1, §2, §3

Test [7] concerns S. pyogenes 19615. As to the kind of experiment: MIC, agar incorporation method. It is filed as cell-based, Streptococcus pyogenes. Particulars: S. pyogenes 19615; agar incorporation.
From the text: as §1, §2, §3

Test [8] concerns S. pneum 6303. As to the kind of experiment: MIC, agar incorporation method. Type of test: cell-based, Streptococcus pneumoniae. Conditions: S. pneum 6303; agar incorporation.
From the text: as §1, §2, §3

The test system of test [9] is S. pneum AB 34. As to the kind of experiment: MIC, agar incorporation method. It is filed as cell-based, Streptococcus pneumoniae. Conditions: S. pneum AB 34; agar incorporation. As to the method: as §1, §3
The test system of test [10] is G+ve. As to the kind of experiment: Summary of in vitro activity (MIC) against G+ve bacteria. Type of test: cell-based. Conditions: for MIC50 / MIC90: G+ve, Number 49; for Geometric Mean of in vitro activity (MIC): Gram +ve. How it is done:
as §1, §3

Test [11] relates to S. aureus. As to the kind of experiment: Summary of in vitro activity (MIC) against S. aureus. It is filed as cell-based, Staphylococcus aureus. Particulars: S. aureus. As to the method:
as §1, §3

For test [12], the system named is E. faecalis. As to the kind of experiment: Summary of in vitro activity (MIC) against E. faecalis. Conditions: E. faecalis. It is filed as cell-based, Enterococcus faecalis. As to the method: as §1, §3
Test [13] concerns S. pneumoniae. As to the kind of experiment: Summary of in vitro activity (MIC) against S. pneumoniae. Type of test: cell-based, Streptococcus pneumoniae. Particulars: S. pneumoniae; for MIC50 / MIC90: Number 19. How it is done:
as §1, §3

Converted amounts (≈) assume the structure as drawn.

Broadly, the MIC is the lowest concentration that inhibits growth of the organism. High values mean a need for much substance, low ones inhibition by little substance. Broadly, the MIC50 is an inhibitory concentration at the 50% level, which refers to growth in some studies and to a panel of isolates in others. By MIC90 is commonly meant the lowest concentration that inhibits either 90% of growth or 90% of the strains tested, depending on the study. Low values mean greater potency, high ones weaker potency.

On to `CC(=O)NC[C@H]1CN(c2ccc(N3CCN(Cc4cccs4)CC3)c(F)c2)C(=O)O1` [Compound No. 12, (S)-N-[[3-[3-Fluoro-4-[N-1[4-(2-thienylmethyl)]piperazinyl]-phenyl]-2-oxo-5-oxazolidinyl]methyl]acetamide], for which the minimum inhibitory concentration (MIC) in test [1], in test [2], in test [3], in test [4], in test [5] and in test [6] was 8 µg/mL (≈ 18.5 µM) each time. The minimal inhibitory concentration (MIC) in [7] was 4 µg/mL (≈ 9.25 µM); in test [8] it was 8 µg/mL (≈ 18.5 µM); in test [9], 8 µg/mL (≈ 18.5 µM).

With `CC(=O)NC[C@H]1CN(c2ccc(N3CCN(Cc4cc(Br)cs4)CC3)c(F)c2)C(=O)O1` [Compound No. 14, (S)-N-[[3-[3-Fluoro-4-[N-1[4-{2-thienyl(4-bromo)methyl}]-piperazinyl]phenyl]-2-oxo-5-oxazolidinyl]methyl]acetamide], the MIC is 2 µg/mL (≈ 3.91 µM) in [1]; 4 µg/mL (≈ 7.82 µM) in test [2]; 2 µg/mL (≈ 3.91 µM) in test [3]; 2 µg/mL (≈ 3.91 µM) in test [4]; 2 µg/mL (≈ 3.91 µM) in [5]; 2 µg/mL (≈ 3.91 µM) in test [6]. Also, the MIC in test [7] amounted to 2 µg/mL (≈ 3.91 µM); in test [8] it was 4 µg/mL (≈ 7.82 µM); in test [9], 4 µg/mL (≈ 7.82 µM).

Take `CC(=O)NC[C@H]1CN(c2ccc(N3CCN(Cc4cccn4C)CC3)c(F)c2)C(=O)O1` [Compound No. 22, (S)-N[[3-[3-Fluoro-4-[N-1[4-{2-pyrrole(1-methyl)methyl}]-piperazinyl]phenyl]2-oxo-5-oxazolidinyl]methyl]acetamide]: the minimum inhibitory concentration (MIC) amounted to 8 µg/mL (≈ 18.6 µM) in test [1]; 2 µg/mL (≈ 4.66 µM) in [2]; 8 µg/mL (≈ 18.6 µM) in test [3]; 4 µg/mL (≈ 9.31 µM) in test [4]; 8 µg/mL (≈ 18.6 µM) in [5]; 8 µg/mL (≈ 18.6 µM) in test [6]. Moreover, the MIC in test [7], in test [8] and in [9] was 1 µg/mL (≈ 2.33 µM) in each case.

Take `CC(=O)NC[C@H]1CN(c2ccc(N3CCN(Cc4ccc(Br)s4)CC3)c(F)c2)C(=O)O1` [Compound No. 27]: the minimum inhibitory concentration (MIC) was 2 µg/mL (≈ 3.91 µM) in test [1]; 2 µg/mL (≈ 3.91 µM) in test [2]; 2 µg/mL (≈ 3.91 µM) in test [3]; 2 µg/mL (≈ 3.91 µM) in [4]; 2 µg/mL (≈ 3.91 µM) in [5]; 4 µg/mL (≈ 7.82 µM) in test [6]. The minimal inhibitory concentration (MIC) was determined as 1 µg/mL (≈ 1.96 µM) in test [7], 2 µg/mL (≈ 3.91 µM) in [8] and 0.5 µg/mL (≈ 0.978 µM) in test [9].

On to `CC(=O)NC[C@H]1CN(c2ccc(N3C[C@@H]4[C@H](C3)[C@H]4N(C)Cc3ccc([N+](=O)[O-])s3)c(F)c2)C(=O)O1` [Compound No. 34, (S)-N-[[3-[3-Fluoro[4-[3-(1α,5α,6α)-6-[N-(5-nitro-2-thienyl-methyl)-N-methyl]amino]-3-azabicyclo-[3.1.0]hexane]phenyl]-2-oxo-5-oxazolidinyl]methyl]acetamide], for which the minimum inhibitory concentration (MIC) in test [1], in test [2], in test [3], in test [4], in test [5] and in test [6] was 1 µg/mL (≈ 1.99 µM) each time. For the same molecule, the minimal inhibitory concentration (MIC) in [7] amounted to 2 µg/mL (≈ 3.97 µM); in test [8], 4 µg/mL (≈ 7.94 µM); in test [9], 4 µg/mL (≈ 7.94 µM).

As for `CC(=O)NC[C@H]1CN(c2ccc(N3C[C@@H]4[C@@H](CN(C)C(=O)Cc5cccs5)[C@@H]4C3)c(F)c2)C(=O)O1` [Compound No. 38, (S)-N-[[3-[3-Fluoro[4-[3-(1α,5α,6α)-6-[N-(2-thiopheneacetyl)-N-methyl]aminomethyl]-3-azabicyclo-[3.1.0]hexane]phenyl]-2-oxo-5-oxazolidinyl]methyl]acetamide], the MIC in test [1], in [2], in [3], in [4], in [5] and in [6] was 4 µg/mL (≈ 7.99 µM) in each case. The MIC in [7], in [8] and in [9] was 1 µg/mL (≈ 2 µM) in each case.

In the case of `CC(=O)NC[C@H]1CN(c2ccc(N3C[C@@H]4[C@@H](CN(C)Cc5ccc([N+](=O)[O-])s5)[C@@H]4C3)c(F)c2)C(=O)O1` [Compound No. 39, (S)-N-[[3-[3-Fluorol[4-[3-(1α,5α,6α)-6-[N-(5-nitro-2-thienyl-methyl)-N-methyl]aminomethyl]-3-azabicyclo-[3.1.0]hexane]phenyl]-2-oxo-5-oxazolidinyl]methyl]acetamide], the MIC in test [1] amounted to 8 µg/mL (≈ 15.5 µM); in [2] it was 8 µg/mL (≈ 15.5 µM); in [3], 4 µg/mL (≈ 7.73 µM); in test [4], 8 µg/mL (≈ 15.5 µM); in [5], 2 µg/mL (≈ 3.86 µM); in test [6] it was 8 µg/mL (≈ 15.5 µM). In addition, the MIC in test [7], in test [8] and in test [9] was 0.5 µg/mL (≈ 0.966 µM) throughout.

Consider `CC(=O)NC[C@H]1CN(c2ccc(N3CC4C(CN(C)Cc5ccc([N+](=O)[O-])o5)C4C3)c(F)c2)C(=O)O1` (stereo partly drawn) [Compound No. 40, (S)-N-[[3-[3-Fluoro[4-[3-(1α,5α,6α)-6-[N-(5-nitro-2-furylmethyl)-N-methyl]aminomethyl]-3-azabicyclo-[3.1.0]hexane]phenyl]-2-oxo-5-oxazolidinyl]methyl]acetamide], for which the minimum inhibitory concentration (MIC) stood at 2 µg/mL (≈ 3.99 µM) in test [1]; 2 µg/mL (≈ 3.99 µM) in test [2]; 2 µg/mL (≈ 3.99 µM) in test [3]; 1 µg/mL (≈ 1.99 µM) in test [4]; 2 µg/mL (≈ 3.99 µM) in [5]; 4 µg/mL (≈ 7.98 µM) in test [6]. For the same molecule, the MIC was 0.125 µg/mL (≈ 0.249 µM) in test [7] and 2 µg/mL (≈ 3.99 µM) in [9]. The MIC50 in test [10] was 1 µg/mL (≈ 1.99 µM); in test [11] (Number 8), 2 µg/mL (≈ 3.99 µM); in test [12] (Number 7), 2 µg/mL (≈ 3.99 µM); in test [13], 1 µg/mL (≈ 1.99 µM). Moreover, the MIC90 in test [10] amounted to 2 µg/mL (≈ 3.99 µM); in test [11] (Number 8) it was 4 µg/mL (≈ 7.98 µM); in [12] (Number 7) it was 4 µg/mL (≈ 7.98 µM); in [13], 1 µg/mL (≈ 1.99 µM). Moreover, the “Geometric Mean of in vitro activity (MIC)” value (“Geometric Mean” below) in test [10] was determined as 0.93 µg/mL; in test [11], 1.83 µg/mL; in test [12], 2.38 µg/mL; in test [13] it was 0.71 µg/mL.

Regarding `CC(=O)NC[C@H]1CN(c2ccc(N3CCN(Cc4ccc(C=NN)o4)CC3)c(F)c2)C(=O)O1` [Compound No. 62, (S)-N-[[3-[3-Fluoro-4[N-1-[4-{2-furyl-(5-hydrazone)-methyl}]-piperazinyl]-phenyl]-2-oxo-5-oxazolidinyl]-methyl]acetamide], the minimal inhibitory concentration (MIC) in test [1] came out at 2 µg/mL (≈ 4.36 µM); in [2], 2 µg/mL (≈ 4.36 µM); in test [3], 2 µg/mL (≈ 4.36 µM); in test [4], 1 µg/mL (≈ 2.18 µM); in test [5], 8 µg/mL (≈ 17.4 µM); in [6], 8 µg/mL (≈ 17.4 µM). The MIC in test [7], in test [8] and in test [9] was 8 µg/mL (≈ 17.4 µM) each time.

For the molecule `CC(=O)NC[C@H]1CN(c2ccc(N3CCN(Cc4ccc(C5OCCCO5)o4)CC3)c(F)c2)C(=O)O1` [Compound No. 66], the MIC was found to be 2 µg/mL (≈ 3.98 µM) in test [1]; 2 µg/mL (≈ 3.98 µM) in test [2]; 2 µg/mL (≈ 3.98 µM) in test [3]; 2 µg/mL (≈ 3.98 µM) in [4]; 16 µg/mL (≈ 31.8 µM) in test [5]; 16 µg/mL (≈ 31.8 µM) in [6]. Also, the MIC in test [7], in test [8] and in test [9] was 8 µg/mL (≈ 15.9 µM) in each case.

With `CC1(C)S[C@@H]2[C@H](NC(=O)Cc3ccccc3)C(=O)N2[C@H]1C(=O)O` [Penicillin G, reference compound], in [10], the MIC50 came to 4 µg/mL (≈ 12 µM), the MIC90 came out at 32 µg/mL (≈ 95.7 µM) and the “Geometric Mean” value stood at 0.76 µg/mL. Also, in test [13], the “Geometric Mean” value was 2.16 µg/mL, the MIC50 worked out at 4 µg/mL (≈ 12 µM) and the MIC90 was 32 µg/mL (≈ 95.7 µM).
